Assay results from patent publication US4201769A, “Antibiotic substances No. 17927A1 and No. 17927A2 and process for producing the same” (Sankyo Company Limited, priority 1977, dated 1980).
Where two headings read alike, the source gives them in different places.

Tests used:
Format in all cases: cell-based
[1] = tested on: Klebsiella pneumoniae 847; experiment: Synergistic action with Cephaloridine (MIC)
Method: (§1) (13) Synergistic action: Synergistic action of the substance No. 17927A2 having 0.23 μg/ml of I50 (50% Inhibitory concentration) against β-lactamase produced from Proteus morganii with Cephaloridine or Ampicillin are summarized in Tables 6 and 7.
(§2) (13) Synergistic action: Synergistic action of the substance No. 17927A1 having 0.27 μg/ml of I50 (50% Inhibitory concentration) against β-lactamase produced from Proteus morganii with Cephaloridine are summarized in Table 10.

Proteus inconstans 1708 = experiment: Synergistic action with Cephaloridine (MIC)
Method: as §1, §2

Proteus rettgeri 1603 = experiment: Synergistic action with Ampicillin or Cephaloridine (MIC)
Method: as §1, §2

Escherichia coli 609 = experiment: Synergistic action with Cephaloridine (MIC)
Method: as §2

Proteus mirabilis 1332 = experiment: Synergistic action with Cephaloridine (MIC)
Method: as §2

Proteus morganii 1510 = experiment: Synergistic action with Cephaloridine (MIC)
Method: as §2

Escherichia coli 640 = experiment: Synergistic action with Ampicillin (MIC)
Method: as §1

Escherichia coli 718 = experiment: Synergistic action with Ampicillin (MIC)
Method: as §1

[2] = No. 17927A1 coexisted 0.1 μg/ml
[3] = No. 17927A1 coexisted 0.4 μg/ml
[4] = No. 17927A2 coexisted 0.1 μg/ml

O=C(Cc1cccs1)N[C@@H]1C(=O)N2C(C(=O)[O-])=C(C[n+]3ccccc3)CS[C@H]12 [Cephaloridine]
MIC ([1]; Klebsiella pneumoniae, 847, read-out: MIC, Cephaloridine alone): 100 µg/mL | MIC, Cephaloridine with No. 17927A1 coexisted [1, 2]: 12.5 µg/mL | MIC, Cephaloridine with No. 17927A1 coexisted [1, 3]: 12.5 µg/mL | MIC, Cephaloridine with No. 17927A2 coexisted [1, 4]: 12.5 µg/mL | MIC, Cephaloridine with No. 17927A1 coexisted (Proteus inconstans 1708; [2]): 6.25 µg/mL | MIC, Cephaloridine with No. 17927A1 coexisted (Proteus inconstans 1708; [3]): 3.13 µg/mL | MIC, Cephaloridine with No. 17927A2 coexisted (Proteus inconstans 1708; [4]): 12.5 µg/mL | MIC (Proteus inconstans 1708; Providencia alcalifaciens, 1708, read-out: MIC, Cephaloridine alone): 1600 µg/mL | MIC, Cephaloridine with No. 17927A1 coexisted (Proteus rettgeri 1603; [2]): 50 µg/mL | MIC, Cephaloridine with No. 17927A1 coexisted (Proteus rettgeri 1603; [3]): 25 µg/mL | MIC (Proteus rettgeri 1603; Providencia rettgeri, 1603, read-out: MIC, Cephaloridine alone): 1600 µg/mL | MIC (Escherichia coli 609; Escherichia coli, 609, read-out: MIC, Cephaloridine alone): 100 µg/mL | MIC, Cephaloridine with No. 17927A1 coexisted (Escherichia coli 609; [2]): 100 µg/mL | MIC, Cephaloridine with No. 17927A1 coexisted (Escherichia coli 609; [3]): 50 µg/mL | MIC, Cephaloridine with No. 17927A1 coexisted (Proteus mirabilis 1332; [2]): 50 µg/mL | MIC, Cephaloridine with No. 17927A1 coexisted (Proteus mirabilis 1332; [3]): 50 µg/mL | MIC (Proteus mirabilis 1332; Proteus mirabilis, 1332, read-out: MIC, Cephaloridine alone): 100 µg/mL | MIC (Proteus morganii 1510; Morganella morganii, 1510, read-out: MIC, Cephaloridine alone): 1600 µg/mL | MIC, Cephaloridine with No. 17927A1 coexisted (Proteus morganii 1510; [2]): 50 µg/mL | MIC, Cephaloridine with No. 17927A1 coexisted (Proteus morganii 1510; [3]): 50 µg/mL

CC1(C)S[C@@H]2[C@H](NC(=O)[C@H](N)c3ccccc3)C(=O)N2[C@H]1C(=O)O [Ampicillin]
MIC (Escherichia coli 640; Escherichia coli, 640, read-out: MIC, Ampicillin alone): 25 µg/mL | MIC, Ampicillin with No. 17927A2 coexisted (Escherichia coli 640; [4]): 1.56 µg/mL | MIC (Escherichia coli 718; Escherichia coli, 718, read-out: MIC, Ampicillin alone): 800 µg/mL | MIC, Ampicillin with No. 17927A2 coexisted (Escherichia coli 718; [4]): 25 µg/mL | MIC, Ampicillin with No. 17927A2 coexisted (Proteus rettgeri 1603; [4]): 50 µg/mL | MIC (Proteus rettgeri 1603; Providencia rettgeri, 1603, read-out: MIC, Ampicillin alone): 100 µg/mL
